Results taken from patent publication US20180084779A1, “PLANT DISEASE CONTROL AGENT AND USE THEREOF” (NIHON NOHYAKU CO., LTD., priority 2015, published 2018).

Columns and labels:
[1] = test system: Septoria tritici, KUK-1-21 Strain; test: Test for wheat leaf blotch, fluoroimide and/or DMI agent sprayed on wheat pots, lesion area index 17 days after inoculation; assay type: in vivo; details: for Controlling effect Combination with fluoroimide / Controlling effect DMI alone: 17 days; for Controlling effect DMI alone: fluoroimide 0 ppm
Procedure: (§1) Test for Wheat Leaf Blotch (Septoria tritici, KUK-1-21 Strain):
(§2) Agrochemical liquids containing a predetermined concentration of fluoroimide and/or a predetermined concentration of each DMI agent were applied to wheat in a predetermined amount with a spray gun. After air drying, a suspension of fungus spore of Septoria tritici adjusted to 1.0×10^7 spores/ml was inoculated by spraying. After that, the wheat pots were kept in a growth chamber under a light condition of at 15° C. 100% RH to encourage the development of the disease. Seventeen days after the inoculation, the lesion area index (0-10) was determined for the evaluation of the control effect.
(§3) Control effect (%)=[(Disease index of no treatment area−Disease index of treatment area)/Disease index of no treatment area]×100 [Formula 1]
(§4) The expected effect (expected value E) by using an active ingredient in combination with each of other active ingredients in the above tests was determined by the following Colby formula (see COLBY, S. R., Weeds 15: 20-22 (1967)).
(§5) E(Expected effect)=(X+Y)−(X×Y/100) [Formula 2]
X=controlling effect of fungicide A alone
Y=controlling effect of fungicide B alone

[2] = test system: Septoria tritici, KUK-1-21 Strain; test: Test for wheat leaf blotch, fluoroimide and/or SDHI agent sprayed on wheat pots, lesion area index 21 days after inoculation; assay type: in vivo; details: for Control effect Combination with fluoroimide / Control effect SDHI alone: 21 days; for Control effect SDHI alone: fluoroimide 0 ppm
Procedure: as §3, §4, §5, §1
as §2, with “SDHI” for “DMI”, “Twenty-one” for “Seventeen”, “set and” for “determined for”, “controlling effects and expected values are examined in” for “evaluation of”, “same manner as Example 1.” for “control effect.”

[3] = DMI agent 1 ppm + fluoroimide 50 ppm
[4] = DMI agent 1 ppm + fluoroimide 100 ppm
[5] = DMI agent 3 ppm + fluoroimide 50 ppm
[6] = DMI agent 3 ppm + fluoroimide 100 ppm
[7] = DMI agent 10 ppm + fluoroimide 50 ppm
[8] = DMI agent 10 ppm + fluoroimide 100 ppm
[9] = SDHI agent 1 ppm + fluoroimide 50 ppm
[10] = SDHI agent 1 ppm + fluoroimide 100 ppm
[11] = SDHI agent 3 ppm + fluoroimide 50 ppm
[12] = SDHI agent 3 ppm + fluoroimide 100 ppm
[13] = SDHI agent 10 ppm + fluoroimide 50 ppm
[14] = SDHI agent 10 ppm + fluoroimide 100 ppm

| Structure (SMILES) | Controlling effect Expected value (Colby) [1, 3] | Controlling effect Combination with fluoroimide [1, 3] | Controlling effect Expected value (Colby) [1, 4] | Controlling effect Combination with fluoroimide [1, 4] | Controlling effect DMI alone ([1]; DMI agent 1 ppm) | Controlling effect Expected value (Colby) [1, 5] | Controlling effect Combination with fluoroimide [1, 5] | Controlling effect Expected value (Colby) [1, 6] | Controlling effect Combination with fluoroimide [1, 6] | Controlling effect DMI alone ([1]; DMI agent 3 ppm) | Controlling effect Expected value (Colby) [1, 7] | Controlling effect Combination with fluoroimide [1, 7] | Controlling effect Expected value (Colby) [1, 8] | Controlling effect Combination with fluoroimide [1, 8] | Controlling effect DMI alone ([1]; DMI agent 10 ppm) | Control effect Expected value (Colby) [2, 9] | Control effect Combination with fluoroimide [2, 9] | Control effect Expected value (Colby) [2, 10] | Control effect Combination with fluoroimide [2, 10] | Control effect SDHI alone ([2]; SDHI agent 1 ppm) | also measured |
| --- | --- | --- | --- | --- | --- | --- | --- | --- | --- | --- | --- | --- | --- | --- | --- | --- | --- | --- | --- | --- | --- |
| OC(Cc1ccccc1Cl)(Cn1nc[nH]c1=S)C1(Cl)CC1 (stereo not drawn) [prothioconazole] | 25% | 3% | 50% | 61% | 0% | 25% | 30% | 50% | 72% | 0% | 25% | 73% | 50% | 67% | 0% | – | – | – | – | – | – |
| CC(C)C1C2CCC1c1c(NC(=O)c3cn(C)nc3C(F)F)cccc12 (stereo not drawn) [isopyrazam] | – | – | – | – | – | – | – | – | – | – | – | – | – | – | – | 19% | 60% | 36% | 20% | 15% | Control effect Expected value (Colby) [2, 11]: 76%; Control effect Combination with fluoroimide [2, 11]: 85%; Control effect Expected value (Colby) [2, 12]: 81%; Control effect Combination with fluoroimide [2, 12]: 85%; Control effect SDHI alone ([2]; SDHI agent 3 ppm): 75%; Control effect Expected value (Colby) [2, 13]: 100%; Control effect Combination with fluoroimide [2, 13]: 100%; Control effect Expected value (Colby) [2, 14]: 100%; Control effect Combination with fluoroimide [2, 14]: 100%; Control effect SDHI alone ([2]; SDHI agent 10 ppm): 100% |
| CCCC1COC(Cn2cncn2)(c2ccc(Cl)cc2Cl)O1 (stereo not drawn) [propiconazole] | 25% | 62% | 50% | 72% | 0% | 46% | 89% | 64% | 94% | 28% | 33% | 89% | 56% | 100% | 11% | – | – | – | – | – | – |
| CC(C)(C)C(O)(CCc1ccc(Cl)cc1)Cn1cncn1 (stereo not drawn) [tebuconazole] | 30% | 62% | 53% | 67% | 6% | 58% | 68% | 72% | 94% | 44% | 71% | 89% | 81% | 94% | 61% | – | – | – | – | – | – |
| O=C(Nc1ccccc1-c1ccc(Cl)cc1)c1cccnc1Cl [boscalid] | – | – | – | – | – | – | – | – | – | – | – | – | – | – | – | 10% | 15% | 29% | 0% | 5% | Control effect Expected value (Colby) [2, 11]: 19%; Control effect Combination with fluoroimide [2, 11]: 65%; Control effect Expected value (Colby) [2, 12]: 36%; Control effect Combination with fluoroimide [2, 12]: 80%; Control effect SDHI alone ([2]; SDHI agent 3 ppm): 15%; Control effect Expected value (Colby) [2, 13]: 62%; Control effect Combination with fluoroimide [2, 13]: 100%; Control effect Expected value (Colby) [2, 14]: 70%; Control effect Combination with fluoroimide [2, 14]: 95%; Control effect SDHI alone ([2]; SDHI agent 10 ppm): 60% |
| CC1(C)CCC(Cc2ccc(Cl)cc2)C1(O)Cn1cncn1 (stereo not drawn) [metconazole] | 30% | 68% | 53% | 78% | 6% | 46% | 84% | 64% | 89% | 28% | 92% | 95% | 95% | 89% | 89% | – | – | – | – | – | – |
| CC1COC(Cn2cncn2)(c2ccc(Oc3ccc(Cl)cc3)cc2Cl)O1 (stereo not drawn) [difenoconazole] | 25% | 52% | 50% | 94% | 0% | 71% | 89% | 81% | 89% | 61% | 71% | 89% | 81% | 100% | 61% | – | – | – | – | – | – |
| Cn1cc(C(=O)Nc2ccccc2-c2cc(F)c(F)c(F)c2)c(C(F)F)n1 [fluxapyroxad] | – | – | – | – | – | – | – | – | – | – | – | – | – | – | – | 5% | 15% | 25% | 50% | 0% | Control effect Expected value (Colby) [2, 11]: 95%; Control effect Combination with fluoroimide [2, 11]: 90%; Control effect Expected value (Colby) [2, 12]: 96%; Control effect Combination with fluoroimide [2, 12]: 100%; Control effect SDHI alone ([2]; SDHI agent 3 ppm): 95%; Control effect Expected value (Colby) [2, 13]: 100%; Control effect Combination with fluoroimide [2, 13]: 100%; Control effect Expected value (Colby) [2, 14]: 100%; Control effect Combination with fluoroimide [2, 14]: 100%; Control effect SDHI alone ([2]; SDHI agent 10 ppm): 100% |
| Fc1ccc([C@]2(Cn3cncn3)O[C@H]2c2ccccc2Cl)cc1 (racemic) [epoxiconazole] | 25% | 19% | 50% | 72% | 0% | 63% | 62% | 75% | 83% | 50% | 71% | 84% | 81% | 83% | 61% | – | – | – | – | – | – |
| CCCN(CCOc1c(Cl)cc(Cl)cc1Cl)C(=O)n1ccnc1 [prochloraz] | 25% | 57% | 50% | 72% | 0% | 33% | 41% | 56% | 72% | 11% | 30% | 62% | 53% | 67% | 6% | – | – | – | – | – | – |
